# Experimental data taken from PubChem BioAssay AID1259407 (Chemical Carcinogenesis Research Information System (CCRIS), 2018).
# Activity calls are given as the source filed them. No rule for the calls is given here.
# System: CCRIS mutagenicity, Ames/micronucleus/aberration tests
# Test: CCRIS mutagenicity studies
# [1] = Test System: AMES SALMONELLA TYPHIMURIUM, Strain/Indicator: TA98, Metabolic Activation: NONE, Method: STANDARD PLATE
# [2] = Test System: AMES SALMONELLA TYPHIMURIUM, Strain/Indicator: TA100, Metabolic Activation: NONE, Method: STANDARD PLATE
smiles,measurement,setting,value
Cc1ccc(N)cc1,mutagenic call,"Test System: AMES SALMONELLA TYPHIMURIUM, Strain/Indicator: TA97, Metabolic Activation: HAMSTER, LIVER, S-9, AROCLOR 1254 (10%), Method: PREINCUBATION",inactive; negative
same,mutagenic call,"Test System: AMES SALMONELLA TYPHIMURIUM, Strain/Indicator: TA97, Metabolic Activation: HAMSTER, LIVER, S-9, AROCLOR 1254 (30%), Method: PREINCUBATION",inactive; negative
same,mutagenic call,"Test System: AMES SALMONELLA TYPHIMURIUM, Strain/Indicator: TA97, Metabolic Activation: NONE, Method: PREINCUBATION",inactive; negative
same,mutagenic call,"Test System: AMES SALMONELLA TYPHIMURIUM, Strain/Indicator: TA97, Metabolic Activation: RAT, LIVER, S-9, AROCLOR 1254 (10%), Method: PREINCUBATION",inactive; negative
same,mutagenic call,"Test System: AMES SALMONELLA TYPHIMURIUM, Strain/Indicator: TA97, Metabolic Activation: RAT, LIVER, S-9, AROCLOR 1254 (30%), Method: PREINCUBATION",inactive; negative
same,mutagenic call,"Test System: AMES SALMONELLA TYPHIMURIUM, Strain/Indicator: TA98, Metabolic Activation: HAMSTER, LIVER, S-9, AROCLOR 1254 (10%), Method: PREINCUBATION",inactive; negative
same,mutagenic call,"Test System: AMES SALMONELLA TYPHIMURIUM, Strain/Indicator: TA98, Metabolic Activation: HAMSTER, LIVER, S-9, AROCLOR 1254 (30%), Method: PREINCUBATION",inactive; negative
same,mutagenic call,"Test System: AMES SALMONELLA TYPHIMURIUM, Strain/Indicator: TA98, Metabolic Activation: HAMSTER, LIVER, S-9, SODIUM PHENOBARBITAL AND 5,6-BENZOFLAVONE, Method: PREINCUBATION",inactive; negative
same,mutagenic call,"Test System: AMES SALMONELLA TYPHIMURIUM, Strain/Indicator: TA98, Metabolic Activation: NONE, Method: PREINCUBATION",inactive; negative
same,mutagenic call,"Test System: AMES SALMONELLA TYPHIMURIUM, Strain/Indicator: TA98, Metabolic Activation: RAT LIVER S-9, PHENOBARBITAL AND BETA-NAPHTHOFLAVONE, Method: PREINCUBATION",inactive; negative
same,mutagenic call,"Test System: AMES SALMONELLA TYPHIMURIUM, Strain/Indicator: TA98, Metabolic Activation: RAT, LIVER, S-9, AROCLOR 1254 (10%), Method: PREINCUBATION",inactive; negative
same,mutagenic call,"Test System: AMES SALMONELLA TYPHIMURIUM, Strain/Indicator: TA98, Metabolic Activation: RAT, LIVER, S-9, AROCLOR 1254 (30%), Method: PREINCUBATION",inactive; negative
same,mutagenic call,"Test System: AMES SALMONELLA TYPHIMURIUM, Strain/Indicator: TA100, Metabolic Activation: HAMSTER, LIVER, S-9, AROCLOR 1254 (10%), Method: PREINCUBATION",inactive; negative
same,mutagenic call,"Test System: AMES SALMONELLA TYPHIMURIUM, Strain/Indicator: TA100, Metabolic Activation: HAMSTER, LIVER, S-9, AROCLOR 1254 (30%), Method: PREINCUBATION",active; positive
same,mutagenic call,"Test System: AMES SALMONELLA TYPHIMURIUM, Strain/Indicator: TA100, Metabolic Activation: HAMSTER, LIVER, S-9, SODIUM PHENOBARBITAL AND 5,6-BENZOFLAVONE, Method: PREINCUBATION",inactive; negative
same,mutagenic call,"Test System: AMES SALMONELLA TYPHIMURIUM, Strain/Indicator: TA100, Metabolic Activation: NONE, Method: PREINCUBATION",inactive; negative
same,mutagenic call,"Test System: AMES SALMONELLA TYPHIMURIUM, Strain/Indicator: TA100, Metabolic Activation: RAT LIVER S-9, PHENOBARBITAL AND BETA-NAPHTHOFLAVONE, Method: PREINCUBATION",inactive; negative
same,mutagenic call,"Test System: AMES SALMONELLA TYPHIMURIUM, Strain/Indicator: TA100, Metabolic Activation: RAT, LIVER, S-9, AROCLOR 1254 (10%), Method: PREINCUBATION",inactive; negative
same,mutagenic call,"Test System: AMES SALMONELLA TYPHIMURIUM, Strain/Indicator: TA100, Metabolic Activation: RAT, LIVER, S-9, AROCLOR 1254 (30%), Method: PREINCUBATION",inactive; negative
same,mutagenic call,"Test System: AMES SALMONELLA TYPHIMURIUM, Strain/Indicator: TA102, Metabolic Activation: HAMSTER, LIVER, S-9, SODIUM PHENOBARBITAL AND 5,6-BENZOFLAVONE, Method: PREINCUBATION",inactive; negative
same,mutagenic call,"Test System: AMES SALMONELLA TYPHIMURIUM, Strain/Indicator: TA102, Metabolic Activation: NONE, Method: PREINCUBATION",inactive; negative
same,mutagenic call,"Test System: AMES SALMONELLA TYPHIMURIUM, Strain/Indicator: TA104, Metabolic Activation: HAMSTER, LIVER, S-9, SODIUM PHENOBARBITAL AND 5,6-BENZOFLAVONE, Method: PREINCUBATION",inactive; negative
same,mutagenic call,"Test System: AMES SALMONELLA TYPHIMURIUM, Strain/Indicator: TA104, Metabolic Activation: NONE, Method: PREINCUBATION",inactive; negative
same,mutagenic call,"Test System: AMES SALMONELLA TYPHIMURIUM, Strain/Indicator: TA1535, Metabolic Activation: HAMSTER, LIVER, S-9, AROCLOR 1254 (10%), Method: PREINCUBATION",inactive; negative
same,mutagenic call,"Test System: AMES SALMONELLA TYPHIMURIUM, Strain/Indicator: TA1535, Metabolic Activation: HAMSTER, LIVER, S-9, AROCLOR 1254 (30%), Method: PREINCUBATION",inactive; negative
same,mutagenic call,"Test System: AMES SALMONELLA TYPHIMURIUM, Strain/Indicator: TA1535, Metabolic Activation: HAMSTER, LIVER, S-9, SODIUM PHENOBARBITAL AND 5,6-BENZOFLAVONE, Method: PREINCUBATION",inactive; negative
same,mutagenic call,"Test System: AMES SALMONELLA TYPHIMURIUM, Strain/Indicator: TA1535, Metabolic Activation: NONE, Method: PREINCUBATION",inactive; negative
same,mutagenic call,"Test System: AMES SALMONELLA TYPHIMURIUM, Strain/Indicator: TA1535, Metabolic Activation: RAT LIVER S-9, PHENOBARBITAL AND BETA-NAPHTHOFLAVONE, Method: PREINCUBATION",inactive; negative
same,mutagenic call,"Test System: AMES SALMONELLA TYPHIMURIUM, Strain/Indicator: TA1535, Metabolic Activation: RAT, LIVER, S-9, AROCLOR 1254 (10%), Method: PREINCUBATION",inactive; negative
same,mutagenic call,"Test System: AMES SALMONELLA TYPHIMURIUM, Strain/Indicator: TA1535, Metabolic Activation: RAT, LIVER, S-9, AROCLOR 1254 (30%), Method: PREINCUBATION",inactive; negative
same,mutagenic call,"Test System: AMES SALMONELLA TYPHIMURIUM, Strain/Indicator: TA1537, Metabolic Activation: HAMSTER, LIVER, S-9, SODIUM PHENOBARBITAL AND 5,6-BENZOFLAVONE, Method: PREINCUBATION",inactive; negative
same,mutagenic call,"Test System: AMES SALMONELLA TYPHIMURIUM, Strain/Indicator: TA1537, Metabolic Activation: NONE, Method: PREINCUBATION",inactive; negative
same,mutagenic call,"Test System: AMES SALMONELLA TYPHIMURIUM, Strain/Indicator: TA1537, Metabolic Activation: RAT LIVER S-9, PHENOBARBITAL AND BETA-NAPHTHOFLAVONE, Method: PREINCUBATION",inactive; negative
same,mutagenic call,"Test System: E. COLI, Strain/Indicator: WP2UVRA/PKM101, Metabolic Activation: HAMSTER, LIVER, S-9, SODIUM PHENOBARBITAL AND 5,6-BENZOFLAVONE, Method: PREINCUBATION",inactive; negative
same,mutagenic call,"Test System: E. COLI, Strain/Indicator: WP2UVRA/PKM101, Metabolic Activation: NONE, Method: PREINCUBATION",inactive; negative
same,mutagenic call,"Test System: E. COLI, Strain/Indicator: WP2UVRA, Metabolic Activation: HAMSTER, LIVER, S-9, SODIUM PHENOBARBITAL AND 5,6-BENZOFLAVONE, Method: PREINCUBATION",inactive; negative
same,mutagenic call,"Test System: E. COLI, Strain/Indicator: WP2 UVRA, Metabolic Activation: NONE, Method: FLUCTUATION TEST",inactive; negative
same,mutagenic call,"Test System: E. COLI, Strain/Indicator: WP2UVRA, Metabolic Activation: NONE, Method: PREINCUBATION",inactive; negative
same,mutagenic call,"Test System: E.COLI, Strain/Indicator: WP2UVRA, Metabolic Activation: NONE, Method: PREINCUBATION",inactive; negative
same,mutagenic call,"Test System: E.COLI, Strain/Indicator: WP2UVRA, Metabolic Activation: RAT LIVER S-9, PHENOBARBITAL AND BETA-NAPHTHOFLAVONE, Method: PREINCUBATION",inactive; negative
ClCc1cc2c3c(cccc3c1)-c1ccccc1-2,mutagenic call,[1],active; positive
same,mutagenic call,[2],active; positive
CC(C)(C)N.CC(C)(C)N.[Cl][Pt][Cl],mutagenic call,"Test System: AMES SALMONELLA TYPHIMURIUM, Strain/Indicator: TA92, Metabolic Activation: NONE, Method: STANDARD PLATE",inactive; negative
same,mutagenic call,[1],active; positive
same,mutagenic call,[2],active; positive
same,mutagenic call,"Test System: AMES SALMONELLA TYPHIMURIUM, Strain/Indicator: TA2410, Metabolic Activation: NONE, Method: STANDARD PLATE",active; positive
Cc1cccc(N=Nc2c(O)ccc3ccccc23)c1C,mutagenic call,[1],inactive; negative
same,mutagenic call,"Test System: AMES SALMONELLA TYPHIMURIUM, Strain/Indicator: TA98, Metabolic Activation: RAT, LIVER, S-9, Method: STANDARD PLATE",inactive; negative
same,mutagenic call,[2],inactive; negative
same,mutagenic call,"Test System: AMES SALMONELLA TYPHIMURIUM, Strain/Indicator: TA100, Metabolic Activation: RAT, LIVER, S-9, Method: STANDARD PLATE",inactive; negative
